Measurements published in publication PMC5701137, “Discovery of novel choline acetyltransferase inhibitors using structure-based virtual screening” (Scientific Reports, 2017).
Values joined by “and” are separate entries in the source; they are usually repeats but may differ in a detail not shown here. Equal entries are not always repeated.

What was measured:
Format in all cases: biochemical
human rChAT [1] = biological target: T1, human rChAT (Homo sapiens, UniProt P28329); assay: In vitro ChAT activity inhibition fluorometric assay and kinetic studies; settings: for mode of inhibition of human rChAT: Lineweaver-Burk plot and nonlinear regression fit; for Vmax of rChAT: inhibitor 0.4 µM, mean ± SEM of two experiments; for Ki / IC50: mean of two experiments; for IC50: substrate concentrations 20 to 80 µM
T1 construct: made in house; host or cells: E. coli BL21 Rosetta2
T1 sequence (P28329 1-630 isoform P28329-3): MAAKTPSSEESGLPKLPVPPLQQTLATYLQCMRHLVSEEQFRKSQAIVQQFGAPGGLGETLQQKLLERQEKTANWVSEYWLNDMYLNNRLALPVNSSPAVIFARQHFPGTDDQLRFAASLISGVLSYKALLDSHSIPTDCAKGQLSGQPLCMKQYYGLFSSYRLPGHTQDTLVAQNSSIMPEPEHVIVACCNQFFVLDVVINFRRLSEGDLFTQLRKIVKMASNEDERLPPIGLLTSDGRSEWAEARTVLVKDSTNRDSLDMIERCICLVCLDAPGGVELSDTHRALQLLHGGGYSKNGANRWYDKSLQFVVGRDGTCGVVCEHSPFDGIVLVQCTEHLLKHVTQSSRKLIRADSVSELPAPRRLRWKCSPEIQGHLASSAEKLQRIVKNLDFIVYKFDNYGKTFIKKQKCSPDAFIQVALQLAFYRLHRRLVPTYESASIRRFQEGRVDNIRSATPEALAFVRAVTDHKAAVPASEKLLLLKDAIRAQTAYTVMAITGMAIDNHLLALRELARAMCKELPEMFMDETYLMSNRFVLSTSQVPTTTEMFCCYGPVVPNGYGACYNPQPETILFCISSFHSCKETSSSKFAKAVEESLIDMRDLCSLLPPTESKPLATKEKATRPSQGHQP
Experimental: ChAT activity was measured using our newly developed fluorometric assay, using human recombinant ChAT (rChAT) protein. The reagents, choline chloride, acetyl coenzyme-A (ACoA, A2181) and 7-Diethylamino-3-(4-maleimidophenyl)-4-methylcoumarin (CPM) were purchased from Sigma-Aldrich (St. Louis, MO, USA).
The ChAT assay could be run in either 96-well or 384-well plates. For 96-well plates, 50 μL/well of 0.212 µg/ml (final concentration) of the recombinant ChAT was incubated with 100 μM different Asinex compounds (50 μL/well) for 10–30 minutes at room temperature in dilution buffer (10 mM Tris-HCl, pH 7.4, 150 mM NaCl, 1.0 mM EDTA, 0.05% (v/v) Triton X-100). Then, 50 µL of a cocktail-A [dilution buffer containing choline chloride (final concentration 150 µM), ACoA (final concentration 13.3 µM) and CPM (final concentration 15 µM)] was added to each well. Immediately after adding the cocktail-A, the changes in fluorescence was monitored kinetically at 479 nm after exciting at 390 nm at 1–2 minute intervals for 15–20 minutes using a microplate spectrophotometer reader (Infinite M1000, Tecan).
Each Asinex compounds were run in triplicates. On each 96-wells plate, several enzyme wells without inhibitor were also included during measurements as control and for estimating the inhibition level. Negative controls were wells without enzyme. The percentage inhibition for each Asinex compound was calculated based on the enzyme control value as a reference (100% activity). The compounds showing over 50% inhibition of enzyme activity were selected for further kinetic studies.
(§1) For kinetic studies, a similar protocol as inhibition assay was followed; a dilution series of five different concentrations ranging from 10^−6 to 10^−9 M were prepared for each selected Asinex compounds. For ChAT, the A-CoA was kept constant at 10 μM (final) but the concentration of choline chloride varied between 320–10 μM. For BuChE, BTC was used as the substrate in the concentrations ranging from 0.0625 to 2 mM. For AChE, ATC was used as the substrate in the concentrations ranging from 0.0312 to 1 mM. Each compound concentration was measured in duplicates. The rate of enzyme activity (as ∆OD/hr kinetic data) was calculated and processed using the GraphPad Prism 7 analysis software. The inhibitory constant (Ki) values were determined from the dose-response curve and the half-maximal inhibitory concentration (IC50) values were calculated by plotting the percentage enzyme activity vs. the log of the Asinex compound concentrations and fitting the data using the nonlinear regression Enzyme Kinetics-Inhibition function.
The Michaelis-Menten constant (Km) and maximal velocity (Vmax) values were calculated from substrate-velocity curve after fitting the data with non-linear regression Michaelis-Menten kinetic function. The Km and Vmax values were further used to plot the Lineweaver-Burk plots; the plots were fitted using linear regression function.

recombinant human AChE = biological target: T2, recombinant human AChE (Homo sapiens, UniProt P22303); assay: Modified Ellman's colorimetric assay for AChE and kinetic studies; settings: 200 µM compound, compared to control, mean of three experiments in triplicate; for inhibition at 200 µM: read-out: AChE % IR (inhibition rate)
T2 construct: purchased Sigma C1682
T2 sequence (P22303 32-614): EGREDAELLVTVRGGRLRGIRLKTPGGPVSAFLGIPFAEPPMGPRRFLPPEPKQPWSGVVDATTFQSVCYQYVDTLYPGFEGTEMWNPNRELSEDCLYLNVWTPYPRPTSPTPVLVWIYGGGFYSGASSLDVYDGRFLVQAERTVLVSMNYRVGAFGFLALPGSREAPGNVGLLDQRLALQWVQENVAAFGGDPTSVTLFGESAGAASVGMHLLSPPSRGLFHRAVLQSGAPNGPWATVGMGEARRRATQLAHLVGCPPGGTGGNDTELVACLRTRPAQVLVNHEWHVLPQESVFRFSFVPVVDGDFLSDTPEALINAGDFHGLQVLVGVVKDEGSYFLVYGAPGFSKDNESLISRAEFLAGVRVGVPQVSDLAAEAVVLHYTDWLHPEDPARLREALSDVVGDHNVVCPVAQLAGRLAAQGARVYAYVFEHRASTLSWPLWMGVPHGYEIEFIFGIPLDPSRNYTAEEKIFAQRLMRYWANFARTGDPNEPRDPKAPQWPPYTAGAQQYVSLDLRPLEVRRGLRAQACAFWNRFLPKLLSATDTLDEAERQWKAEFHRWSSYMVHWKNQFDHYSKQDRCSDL
Description: (§2) A modified version of Ellman’s colorimetric assay[16],[17] was adapted to a high throughput assay for the enzymatic activity of BuChE and AChE. The reagent, butyrylthiocholine iodide (BTC), acetylthiocholine iodide (ATC), 5,5′-dithiobis (2-nitrobenzoic acid) (DTNB) were purchased from Sigma-Aldrich (St. Louis, MO, USA). The modified assay details are as previously described[34],[35]. The main modification concerned with the high throughput adaptation of the assay for use in 384-well plates. Briefly, 25 μL/well of a 1:450 diluted solution of a pooled human plasma and 1:768 diluted (3.5 ng/ml final concentration) purified recombinant human AChE protein (Sigma, Cat no. C1682) was used for measurement of BuChE and AChE activity, respectively. In the initial in vitro screening step, the wells were pre-incubated with 25 μL/wells of different Asinex compounds for 10–30 minutes at room temperature. The concentration of the compounds working solution was 3X to give a final concentration of 200 μM in a final volume of 75 μL in each well. The stock concentration of the compounds were prepared in 100% DMSO. The stock concentration was chosen usually at 10 mM, allowing the final DMSO concentration in the wells to be less than 4%. Finally, 25 μL of a cocktail mix prepared in Na/K phosphate buffer, containing DTNB (final concentration 0.4 mM) and BTC, (final concentration 1 mM) or ATC (final concentration 0.5 mM) was added to each well and the changes in absorbance was monitored at 412 nm wavelength for 15–20 minutes with one-minute interval, using a microplate spectrophotometer reader (Infinite M1000, Tecan). The rate of the enzyme activity was determined from the linear part of the kinetic reaction curves as ∆OD/time.
as §1

plasma BuChE = biological target: T3, plasma BuChE (Homo sapiens, UniProt P06276); assay: Modified Ellman's colorimetric assay for BuChE (pooled human plasma) and kinetic studies; settings: 200 µM compound, compared to control, mean of three experiments in triplicate; for BuChE % IR (inhibition rate): 200 µM; for inhibition at 200 µM: read-out: BuChE % IR (inhibition rate)
T3 construct: 1:450 diluted solution of a pooled human plasma; from tissue; host or cells: pooled human plasma
T3 sequence (P06276 29-602): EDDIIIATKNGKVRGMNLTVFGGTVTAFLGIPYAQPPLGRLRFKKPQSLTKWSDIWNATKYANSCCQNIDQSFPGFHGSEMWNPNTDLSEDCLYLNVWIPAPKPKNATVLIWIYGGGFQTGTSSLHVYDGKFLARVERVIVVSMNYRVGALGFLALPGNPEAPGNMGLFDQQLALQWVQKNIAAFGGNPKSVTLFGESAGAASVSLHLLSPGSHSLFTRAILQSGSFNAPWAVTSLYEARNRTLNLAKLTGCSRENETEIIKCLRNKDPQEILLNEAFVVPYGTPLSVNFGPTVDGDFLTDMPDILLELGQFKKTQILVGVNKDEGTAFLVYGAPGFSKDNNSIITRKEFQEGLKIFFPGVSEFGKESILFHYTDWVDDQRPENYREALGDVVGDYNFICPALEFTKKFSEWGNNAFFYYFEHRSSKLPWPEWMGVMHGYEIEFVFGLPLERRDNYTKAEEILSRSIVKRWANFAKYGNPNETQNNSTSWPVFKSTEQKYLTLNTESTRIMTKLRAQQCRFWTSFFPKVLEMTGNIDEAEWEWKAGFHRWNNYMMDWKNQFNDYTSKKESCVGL
Description: as §2, §1

human rChAT [2] = biological target: T1, human rChAT; assay: In vitro ChAT activity inhibition fluorometric assay and kinetic studies; settings: mean ± SEM of two experiments

SMILES	mode of inhibition of human rChAT (human rChAT [1])	Vmax of rChAT (human rChAT [1])	Ki (human rChAT [1])	IC50 (human rChAT [1])	inhibition at 200 µM (recombinant human AChE)	BuChE % IR (inhibition rate) (plasma BuChE)	inhibition at 200 µM (plasma BuChE)	Vmax of rChAT (human rChAT [2]; inhibitor 2.0 µM)	Vmax of rChAT (human rChAT [2]; inhibitor 10.0 µM)	Vmax of rChAT (human rChAT [2]; inhibitor 50.0 µM)	Vmax of rChAT (human rChAT [2]; inhibitor 250.0 µM)	inhibition at 100 µM (human rChAT [1]; 100 µM compound, compared to control, mean of three experiments in triplicate, read-out: ChAT % IR (inhibition rate))	AChE % IR (inhibition rate) (recombinant human AChE; 200 µM)
CC(C)NC(=O)C1CCN(C(=O)c2csc(Nc3cccc4ccccc34)n2)CC1 [Compound B4]	mixed-model type inhibition	239.0 ± 21.4 µM/min	11.9 µM	~16.5 µM and 16.5 µM	0%	22.1%	22%	226 ± 20.9 µM/min	150.9 ± 13.5 µM/min	92.1 ± 19.4 µM/min	45.5 ± 8.5 µM/min		
CC(C)c1ccc(C(=O)CSc2n[nH]c(-c3ccco3)n2)cc1 [Compound E1]	mixed-model inhibition	276.1 ± 12.1 µM/min	~15.2 µM and 15.2 µM	~25.4 µM and 25.4 µM	12%	17.2%	17%	265.1 ± 11.7 µM/min	243.8 ± 22.0 µM/min	167.8 ± 10.4 µM/min	160.3 ± 16.8 µM/min	> 50%	12.4%
